Reference: the supplement of paper PMC10307832

Legend:
Experiment in all cases: relative viability (nuclei count vs DMSO), 5 days (fraction); higher = more cells survive
[1] = compound: COC1=CC=C(C=C1)CN2C=CC3=C2C=C(C=C3)C(=O)NO + CC1(C)CCC(c2ccc(Cl)cc2)=C(CN2CCN(c3ccc(C(=O)NS(=O)(=O)c4ccc(N[C@H](CCN5CCOCC5)CSc5ccccc5)c(S(=O)(=O)C(F)(F)F)c4)cc3)CC2)C1 [Navitoclax] (partner 0.5 µM)
Summary of the method: (§1)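 Lung cancer cell lines in 1536-well plates got either a single drug or a fixed anchor-drug dose together with five library-drug doses (not always all listed) in √10 steps, by pin tool, on the day after seeding. Nuclei were counted after 5 days, and relative viability is the treated-to-vehicle ratio of nuclei counts. Values are medians of duplicate plates.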

[2] = compound: COC1=CC=C(C=C1)CN2C=CC3=C2C=C(C=C3)C(=O)NO + N=C(N)NC(=N)NCCc1ccccc1 [Phenformin] (partner 250 µM)
Summary of the method: as §1

[3] = compound: C[C@]1(c2nc3c(C(N)=O)cccc3[nH]2)CCCN1 [Veliparib] + Cc1nc(NC(=O)N2CCC[C@H]2C(N)=O)sc1-c1ccnc(C(C)(C)C(F)(F)F)c1 [Alpelisib] (partner 2 µM)
Summary of the method: as §1

[4] = compound: C[C@]1(c2nc3c(C(N)=O)cccc3[nH]2)CCCN1 [Veliparib] + Nc1nc2[nH]cc(CCc3ccc(C(=O)N[C@@H](CCC(=O)O)C(=O)O)cc3)c2c(=O)[nH]1 [Pemetrexed] (partner 0.2 µM)
Summary of the method: as §1

With SW 1573 the relative viability ([1]; first compound 0.253 µM) was 0.943, the relative viability ([1]; first compound 0.8 µM) was 1.19 and the relative viability ([1]; first compound 2.53 µM) was 0.961. The relative viability ([1]; first compound 8 µM) was 0.946, the relative viability ([2]; first compound 0.253 µM) was 0.368 and the relative viability ([2]; first compound 0.8 µM) was 0.426. The relative viability ([2]; first compound 2.53 µM) was 0.379, the relative viability ([2]; first compound 8 µM) was 0.331 and the relative viability ([3]; first compound 0.02 µM) was 0.803. For the same cell line, the relative viability ([3]; first compound 0.06325 µM) was 0.867, the relative viability ([3]; first compound 0.2 µM) was 0.791 and the relative viability ([3]; first compound 0.6325 µM) was 0.675. It also gave a relative viability ([3]; first compound 2 µM) of 0.805, a relative viability ([4]; first compound 0.06325 µM) of 0.721 and a relative viability ([4]; first compound 0.2 µM) of 0.758. For the same cell line, the relative viability ([4]; first compound 0.6325 µM) was 0.768 and the relative viability ([4]; first compound 2 µM) was 0.86.
